Data on seven compounds can be found in patent EP0802900B1, “ANTIARRHYTHMIC (S)-ENANTIOMERS OF METHANESULFONAMIDES” (priority 1995, dated 1996).

Like-named read-outs stand apart in the source and are kept apart here.

In one series the test system is rabbit papillary muscle. The experiment in a line: Electrophysiological activity in isolated, perfused rabbit cardiac tissue (effective refractory period). Set-up: species or system New Zealand White rabbits. Conditions: drug concentration of 10^-5M; for activation at 10 µM: Oryctolagus cuniculus. The protocol:
According to Scheme 1, in Step I, (4-methanesulfonylamino)-γ-oxobenzenebutanoic acid (II, prepared as described in EP 164 865) is convened to the N-ethylamide (III). Standard amide forming reagents such as dicyclohexylcarbodiimide or preferably isobutyl chloroformate can be used for this purpose. In Step II the ketone of III is reduced with the chiral reagent (-)-B-chlorodiisopinocamphenylborane in tetrahydrofuran. The reaction is carried out below 0°C and preferably at -25 to -35°C. A nonaqueous work up is used to facilitate isolation of the water soluble product. The (S)-(-) enantiomer of the chiral alcohol is obtained. Purification of this alcohol by recrystallization from acetonitrile, methanol, ethanol, tert-butyl methyl ether or mixtures thereof gives IV with high enantiomeric purity. In Step III the amide of IV is reduced with sodium bis-(2-methoxyethoxy)aluminum hydride in tetrahydrofuran at 24°C. A neutral nonaqueous work up is employed to facilitate isolation of the water soluble product (V). Alkylation of V with appropriately substituted alkyl bromides (R3CH2Br) to give the compounds (I) of this invention is accomplished in Step IV. The preferred conditions for this reaction employ acetonitrile as solvent and the weakly basic sodium bicarbonate to neutralize the hydrogen bromide generated by the reaction. The reaction is usually carried out at the reflux temperature (81°C). [drawing 2] The Formula I compounds were evaluated for electrophysiological activity in an isolated, perfused rabbit cardiac tissue system. The method used was as follows:
New Zealand White rabbits of either sex (1.5-2.0 kg) were anesthetized and their hearts removed. The heart was immersed in ice cold perfusate while the right atria (RA), papillary muscles (PAP), and right ventricular muscle strips (RV) were isolated. The perfusate was continuously oxygenated with 95% oxygen and 5% carbon dioxide and contained the following in mM concentrations: NaCI 118.0; KCl 5.4; NaHCO3 25.0; MgCl2 1.2: KH2PO4 1.0; CaCl2 2.4; glucose […] and pyruvic acid 2.0. During hypoxic conditions the perfusate was exposed to a mixture of 83% nitrogen, 10% carbon dioxide and 7% oxygen. The pH during normoxia was approximately 7.4 and dropped to approximately 7.2 during hypoxic conditions.
The tissues were individually mounted on a plexiglass holder containing platinum stimulating electrodes and suspended in a 100 ml bath maintained at 30°C by a circulating heat pump. All tissues were attached by silk suture to a force-displacement transducer and a tissue-dependent preload of 500-1000 mg was applied. RA were allowed to contract spontaneously. RV and PAP were stimulated at 2X threshold with 4 msec rectangular pulses at a frequency of 1 and 3 Hz. (Effective refractory period measurements percent increment over control are ERPI and ERP3, conduction time measurements are CT1 and CT3). Between measurements those tissues were stimulated at a resting pace of 2 Hz. Each tissue served as its own baseline control and was allowed an equilibration period of two hours prior to experiments. During this period the perfusate was changed every 10-15 minutes.
Working solutions of the drugs were prepared by dissolving the drugs in distilled water and one drop of NaOH/ml to aid in dissolution (pH 9.4).
Measurements were made on each set of tissues after exposure to 10^-7, 10^-6, or 10^-5M drug for 15 minutes; and 10^-5M drug under hypoxic conditions for 15 minutes.
Automaticity (RATE), force of contraction (FOC) and threshold were measured directly on a polygraph. The ERP of cardiac tissues by definition is the longest coupling interval between the basic drive (S1) and the premature impulse (S2) that fails to propagate through the tissue. The S2 stimulus was introduced after every eighth Sl which allowed time for stabilization of refractoriness. Refractory period measurements were made via a digital timing circuit. […]

For series [1], the system named is methoxamine treated rabbits. In words: Early after depolarizations (EAD) and polymorphic ventricular tachycardia (PVT) in methoxamine treated anesthetized rabbits. It is filed as in vivo, New Zealand White rabbits. Conditions: for EAD: Magnitude of the maximum early after depolarization amplitude as a percent of the monophasic action potential amplitude (APA) / MAPD90: Maximum increase in the ventricular monophasic action potential duration from the methoxamine infusion baseline, measured at 90% repolarization / PVT: Ratio of the number of animals that developed polymorphic ventricular tachycardia to the total number of animals evaluated / QTc: Maximum increase in QTc interval from the methoxamine infusion baseline: continuous intravenous infusion over 1 hour, methoxamine 10 µg/kg/minute. The protocol:
The Formula I compounds were evaluated for their ability to produce early after depolarizations (EAD) and polymorphic ventricular tachycardia (PVT) in methoxamine treated rabbits. The method used was as follows:
Male New Zealand White rabbits (2.5 - 3.5 kg,) were pretreated with subcutaneous morphine sulfate (5 mg/kg) 30 minutes prior to anesthesia. Anesthesia was induced by infusion of α-chloralose (90 - 120 mg/kg) through a marginal ear vein over a period of 20 to 30 minutes. A tracheotomy was performed and the rabbit was respirated with room air (5 - 6 cc/kg) using a small animal ventilator (Columbus Instruments, Columbus, OH). Respiration rate, and tidal volume were adjusted, and supplemental oxygen administered to maintain arterial blood gases and pH within normal physiologic ranges. Catheters were placed in a jugular vein and carotid artery for administration of drugs, and measurement of arterial blood pressure, respectively. A 4 French monophasic action potential catheter was introduced through a jugular vein for monitoring of right ventricular monophasic action potential duration which was measured at 90% repolarization (MAPD90), A lead II ECG and arterial blood pressure were monitored throughout the experiments.
All records were obtained on a multichannel recorder (Gould ES 2000, Cleveland, OH) and experiments were continuously recorded on FM magnetic tape (TEAC 501, Montebello, CA) for subsequent playback and analysis.
Following experimental preparation, the rabbits were allowed to equilibrate for 10 minutes before baseline measurements of heart rate, aortic blood pressure, and QTc interval were made. During the equilibration period, monophasic action potentials were monitored and the catheter adjusted to produce action potentials with a stable amplitude. Following baseline measurements, the α1 agonist methoxamine was infused at a rate of 10 µg/kg/minute at an infusion volume of 12.0 ml/hr. After 15 minutes of methoxamine administration, intravenous infusion of saline (vehicle control) or a class III agent was begun. All agents were administered as a continuous infusion over a 1 hour period. Measurement of heart rate, aortic blood pressure. QTc interval (as defined below), and MAPD90 were repeated at several time points during drug administration to provide dose-response relationships. QTc and MAPD90 were also monitored to insure that maximal class III effects on these parameters had been achieved.
Total accumulated dose at the first incidence of PVT was also measured. Repolarization arrhythmias were characterized as early after depolarizations and extrasystoles during repolarization which produced extrasystoles in lead II ECG. PVT was considered to have occurred if 3 or more closely coupled repetitive extrasystoles with a twisting or torsioning QRS morphology were observed.
QT intervals were corrected for heart rate changes using the formula QTc = QT/square root R-R interval. EADs were compared between treatment groups at stable monophasic action potential amplitudes (APA) and are reported as a percent of the APA.
Examples of Formula I compounds evaluated in this manner are collected in Table II. A measure of Class III antiarrhythmic activity is indicated by an increase in QTc and MAPD90. The proarrhythmic potential is indicated by the incidence and magnitude of the EADs and by the ratio of the incidence of PVT to the total number of animals tested. The corresponding data for ibutilide, a compound of U.S. Patent 5,155,268, and the racemc forms Examples (R.S) (compounds of PCT WO 91/01299) are shown for comparison.

[2] abbreviates: pacing rate of 1 Hz, read-out: ERP1: percent increase in the effective refractory period over control values.
The mark [3] stands for this setting: pacing rate of 3 Hz, read-out: ERP3: percent increase in the effective refractory period over control values.
The mark [4] stands for this setting: value in parentheses in EAD column.

For `CCN(CCCCCC(C)(C)F)CCC[C@H](O)c1ccc(NS(C)(=O)=O)cc1` [Example 3, (S)-(-)-N-[4-[4-[Ethyl(6-fluoro-6-methylheptyl)amino]-1-hydroxybutyl]phenyl]-methanesulfonamide], the activation at 10 µM with rabbit papillary muscle (setting [2]) is 21.4%. For the same compound, in the series on rabbit papillary muscle (setting [3]), the activation at 10 µM worked out at 25.4%. In series [1], the “EAD: Magnitude of the maximum early after depolarization amplitude as a percent of the monophasic action potential amplitude (APA)” value came to 0%; the “MAPD90: Maximum increase in the ventricular monophasic action potential duration from the methoxamine infusion baseline, measured at 90% repolarization” value (from here on “MAPD90: Maximum increase … at 90% repolarization”) was “+75 m sec”; the “PVT: Ratio of the number of animals that developed polymorphic ventricular tachycardia to the total number of animals evaluated” value (shortened to “PVT: Ratio”) was 0/16; the “QTc: Maximum increase in QTc interval from the methoxamine infusion baseline” value (“QTc: Maximum increase in QTc interval” below) is reported as “+82 m sec”.
As for `CCCCCCCN(CC)CCCC(O)c1ccc(NS(C)(=O)=O)cc1` (stereo not drawn) [Ibutilide, ibutilide], the activation at 10 µM in the series with rabbit papillary muscle (setting [2]) turned out to be 18%. Also, the activation at 10 µM in the series with rabbit papillary muscle (setting [3]) came to 15.8%. Also, in series [1], the “MAPD90: Maximum increase … at 90% repolarization” value is recorded as “+114 m sec” and the “QTc: Maximum increase in QTc interval” value was “+95 m sec”. Also, in series [1] (rabbit, in vivo), the “Total accumulated dose at the first incidence of PVT” value (shortened to “Total accumulated dose … of PVT”) came out at 1 mg/kg and the “Total accumulated dose of test compound when the maximum EAD was measured” value (“Total accumulated dose of test compound” for short) amounted to 4 mg/kg.
For “(S)-(-)-N-[4-[4-[Ethyl(7-fluoroheptyl)amino]-1-hydroxybutyl]phenyl] methanesulfonamide, (E)-2-Butenedioate (2:1 salt) [Example 1]”, in the series on rabbit papillary muscle (pacing rate of 1 Hz), the “ERP1: percent increase in the effective refractory period over control values” amounted to 43.5%. In the series on rabbit papillary muscle (pacing rate of 3 Hz), the “ERP3: percent increase in the effective refractory period over control values” amounted to 26.1%. For the same compound, in series [1], the “EAD: Magnitude of the maximum early after depolarization amplitude as a percent of the monophasic action potential amplitude (APA)” value is recorded as 0%; the “MAPD90: Maximum increase … at 90% repolarization” value is on record as “+70 m sec”; the “PVT: Ratio” value is recorded as 0/16; the “QTc: Maximum increase in QTc interval” value is reported as “+112 m sec”.
As to `CCN(CCCCCC(C)(C)F)CCCC(O)c1ccc(NS(C)(=O)=O)cc1` (racemic) [(R,S) 3], in series [1], the “EAD: Magnitude of the maximum early after depolarization amplitude as a percent of the monophasic action potential amplitude (APA)” value was 35%; the “MAPD90: Maximum increase … at 90% repolarization” value is listed as “+96 m sec”; the “PVT: Ratio” value was 1/6; the “QTc: Maximum increase in QTc interval” value is “+136 m sec”. In addition, the “Total accumulated dose of test compound” value in series [1] (setting [4]) came to 0.25 mg/kg. Also, in series [1] (value in parentheses in PVT), the “Total accumulated dose … of PVT” value came to 0.2 mg/kg.
`CCN(CCCCCC(C)F)CCCC(O)c1ccc(NS(C)(=O)=O)cc1` (racemic) [(R,S) 2]: in series [1], the “EAD: Magnitude of the maximum early after depolarization amplitude as a percent of the monophasic action potential amplitude (APA)” value was found to be 63%; the “MAPD90: Maximum increase … at 90% repolarization” value is listed as “+141 m sec”; the “PVT: Ratio” value is given as 3/6; the “QTc: Maximum increase in QTc interval” value is “+166 m sec”. Further, in series [1] (setting [4]), the “Total accumulated dose of test compound” value was determined as 1 mg/kg. The “Total accumulated dose … of PVT” value in series [1] (value in parentheses in PVT) is recorded as 0.2 mg/kg.
In the case of `CCN(CCCCCCCF)CCCC(O)c1ccc(NS(C)(=O)=O)cc1` (racemic) [(R,S) 1], in series [1], the “EAD: Magnitude of the maximum early after depolarization amplitude as a percent of the monophasic action potential amplitude (APA)” value came to 52%; the “MAPD90: Maximum increase … at 90% repolarization” value is “+128 m sec”; the “PVT: Ratio” value is recorded as 1/6; the “QTc: Maximum increase in QTc interval” value is recorded as “+143 m sec”. Besides, in series [1] (setting [4]), the “Total accumulated dose of test compound” value came out at 0.5 mg/kg. Also, in series [1] (value in parentheses in PVT), the “Total accumulated dose … of PVT” value was 2 mg/kg.
In the case of “(S)-(-)-N-[4-[4-[Ethyl(6-fluoroheptyl)amino]-1-hydroxybutyl]phenyl]methanesulfonamide, (E)-2-Butenedioate (2:1 salt) [Example 2]”, the “ERP1: percent increase in the effective refractory period over control values” in the series with rabbit papillary muscle (pacing rate of 1 Hz) is listed as 30.7%. Besides, the “ERP3: percent increase in the effective refractory period over control values” with rabbit papillary muscle (pacing rate of 3 Hz) is on record as 8.7%. In addition, in series [1], the “EAD: Magnitude of the maximum early after depolarization amplitude as a percent of the monophasic action potential amplitude (APA)” value is on record as 0%; the “MAPD90: Maximum increase … at 90% repolarization” value is on record as “+88 m sec”; the “PVT: Ratio” value is given as 0/16; the “QTc: Maximum increase in QTc interval” value is on record as “+119 m sec”.
